In patent publication US12552766B2, “Pesticidally active azole amide compounds” (SYNGENTA CROP PROTECTION AG, priority 2019, dated 2026):

Legend:
Assay type in all cases: in vivo
[1] = system: Euschistus heros (Neotropical Brown Stink Bug); assay: Example B2: Euschistus heros, spray on soybean leaves; settings: 120 h, application rate of 200 ppm, N2 nymphs, 5 days after infestation, read-out: control in at least one of the two categories (mortality or growth inhibition)
Procedure: Soybean leaves on agar in 24-well microtiter plates were sprayed with aqueous test solutions prepared from 10′000 ppm DMSO stock solutions. After drying the leaves were infested with N2 nymphs. The samples were assessed for mortality and growth inhibition in comparison to untreated samples 5 days after infestation.

[2] = system: Diabrotica Balteata (Corn Root Worm); assay: Example B1: Diabrotica balteata, spray on maize sprouts; settings: 96 h, application rate of 200 ppm, L2 larvae, 4 days after infestation, read-out: control in at least one of the two categories (mortality or growth inhibition)
Method in brief: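 Read-out is mortality plus growth inhibition relative to untreated controls, assessed 4 days after infestation. Sprouts resting on agar are sprayed with aqueous solutions derived from 10′000 ppm DMSO stocks and left to dry before L2 larvae (6 to 10 per well) are added.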

[3] = system: Chilo suppressalis (Striped Rice Stemborer); assay: Example B4: Chilo suppressalis, artificial diet; settings: 144 h, application rate of 200 ppm, L2 larvae, 6 days after infestation, read-out: control in at least one of the three categories (mortality, anti-feedant effect, or growth inhibition)
Method in brief: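 Diet-incorporation surface assay: aqueous dilutions of 10'000 ppm DMSO stock applied to artificial diet, dried; 6-8 L2 larvae/well; read day 6 post-infestation for mortality, antifeedant effect, growth inhibition vs untreated. Active if any category above untreated.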

[4] = system: Spodoptera littoralis (Egyptian Cotton Leaf Worm); assay: Example B9: Spodoptera littoralis, spray on cotton leaf discs; settings: foliar, 72 h, application rate of 200 ppm, L1 larvae, 3 days after infestation, read-out: control in at least one of the three categories (mortality, anti-feedant effect, or growth inhibition)
Method in brief: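 Leaf discs on agar sprayed with aqueous dilutions of 10′000 ppm DMSO stocks, dried, then infested with five L1 larvae. Mortality, anti-feeding and growth inhibition scored versus untreated 3 days after infestation; control given when any category exceeds untreated.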

[5] = system: Spodoptera littoralis (Egyptian Cotton Leaf Worm); assay: Example B10: Spodoptera littoralis, uptake by lettuce roots from agar; settings: 144 h, test rate of 12.5 ppm, eggs, 6 days after infestation, read-out: control in at least one of the three categories (mortality, anti-feedant, or growth inhibition)
Source text: Test compounds were applied by pipette from 10′000 ppm DMSO stock solutions into 24-well plates and mixed with agar. Lettuce seeds were placed onto the agar and the multi well plate was closed by another plate which contained also agar. After 7 days the compound was absorbed by the roots and the lettuce grew into the lid plate. The lettuce leaves were then cut off into the lid plate. Spodoptera eggs were pipetted through a plastic stencil onto a humid gel blotting paper and the lid plate was closed with it. The samples were assessed for mortality, anti-feedant effect and growth inhibition in comparison to untreated samples 6 days after infestation.

[6] = system: Plutella xylostella (Diamondback Moth); assay: Example B13: Plutella xylostella, artificial diet, 96-well; settings: 216 h, application rate of 500 ppm, eggs/L1 larvae, 9 days after infestation
Procedure: 96-well microtiter plates containing artificial diet were treated with aqueous test solutions, prepared from 10′000 ppm DMSO stock solutions, by a liquid handling robot. After drying, eggs (˜30 per well) were infested onto a netted lid which was suspended above the diet. The eggs hatch and L1 larvae move down to the diet. The samples were assessed for mortality 9 days after infestation.

[7] = system: Plutella xylostella (Diamond Back Moth); assay: Example B5: Plutella xylostella, artificial diet, 24-well; settings: 192 h, application rate of 200 ppm, eggs, 8 days after infestation, read-out: control in at least one of the two categories (mortality or growth inhibition)
Procedure: 24-well microtiter plates with artificial diet were treated with aqueous test solutions prepared from 10′000 ppm DMSO stock solutions by pipetting. After drying, Plutella eggs were pipetted through a plastic stencil onto a gel blotting paper and the plate was closed with it. The samples were assessed for mortality and growth inhibition in comparison to untreated samples 8 days after infestation.

[8] = system: Tetranychus urticae (Two-Spotted Spider Mite); assay: Example B14: Tetranychus urticae, feeding/contact activity; settings: 192 h
Procedure: Bean leaf discs on agar in 24-well microtiter plates were sprayed with aqueous test solutions prepared from 10′000 ppm DMSO stock solutions. After drying the leaf discs were infested with a mite population of mixed ages. The samples were assessed for mortality on mixed population (mobile stages) 8 days after infestation.

[9] = system: Myzus persicae (Green Peach Aphid); assay: Example B12: Myzus persicae, sucrose solution, 96-well; settings: 120 h, application rate of 50 ppm, 5 days after infestation
Procedure: Test compounds prepared from 10′000 ppm DMSO stock solutions were applied by a liquid handling robot into 96-well microtiter plates and mixed with a sucrose solution. Parafilm was stretched over the 96-well microtiter plate and a plastic stencil with 96 holes was placed onto the plate. Aphids were sieved into the wells directly onto the Parafilm. The infested plates were closed with a gel blotting card and a second plastic stencil and then turned upside down. The samples were assessed for mortality 5 days after infestation.

[10] = system: Myzus persicae (Green Peach Aphid); assay: Example B6: Myzus persicae, feeding/contact activity; settings: 144 h, application rate of 200 ppm, mixed ages, 6 days after infestation
Procedure: Sunflower leaf discs were placed onto agar in a 24-well microtiter plate and sprayed with aqueous test solutions prepared from 10′000 ppm DMSO stock solutions. After drying, the leaf discs were infested with an aphid population of mixed ages. The samples were assessed for mortality 6 days after infestation.

CC(c1nc(Br)nn1-c1ccc(C#N)cn1)N(C)C(=O)c1cc(C(F)(F)F)cc(C(F)(F)F)c1 (centres unmarked) [Compound P12, N-[1-[5-bromo-2-(5-cyano-2-pyridyl)-1,2,4-triazol-3-yl]ethyl]-N-methyl-3,5-bis(trifluoromethyl) benzamide]
≥ 80%: percent control (mortality or growth inhibition) at 200 ppm [1] | percent control (mortality or growth inhibition) at 200 ppm [2] | percent control (mortality, anti-feedant effect or growth inhibition) at 200 ppm [3] | percent control (mortality, anti-feedant effect or growth inhibition) at 200 ppm [4] | percent control (mortality, anti-feedant effect or growth inhibition) at 12.5 ppm [5] | mortality at 500 ppm [6] | percent control (mortality or growth inhibition) at 200 ppm [7]

CC(NC(=O)c1cc(OC(F)F)cc(C(F)(F)F)c1)c1nc(Br)nn1-c1ccc(OCC(F)F)cn1 (centres unmarked) [Compound P16, N-[1-[5-bromo-2-[5-(2,2-difluoroethoxy)-2-pyridyl]-1,2,4-triazol-3-yl]ethyl]-3-(difluoromethoxy)-5-(trifluoromethyl) benzamide]
≥ 80%: percent control (mortality or growth inhibition) at 200 ppm [2] | percent control (mortality, anti-feedant effect or growth inhibition) at 200 ppm [3] | percent control (mortality, anti-feedant effect or growth inhibition) at 200 ppm [4] | mortality at 500 ppm [6] | mortality at 200 ppm [8] | percent control (mortality or growth inhibition) at 200 ppm [7]

CC(NC(=O)c1cc(OC(F)F)cc(C(F)(F)F)c1)c1nc(Br)nn1-c1ncc(OCC(F)F)cn1 (centres unmarked) [Compound P23, N-[1-[5-bromo-2-[5-(2,2-difluoroethoxy)pyrimidin-2-yl]-1,2,4-triazol-3-yl]ethyl]-3-(difluoromethoxy)-5-(trifluoromethyl)be nzamide]
≥ 80%: percent control (mortality or growth inhibition) at 200 ppm [2] | percent control (mortality, anti-feedant effect or growth inhibition) at 200 ppm [3] | percent control (mortality, anti-feedant effect or growth inhibition) at 200 ppm [4] | mortality at 50 ppm [9] | mortality at 500 ppm [6] | percent control (mortality or growth inhibition) at 200 ppm [7]

CC(NC(=O)c1cc(Br)cc(C(F)(F)F)c1)c1nc(Br)nn1-c1ccc(OCC(F)F)cn1 (centres unmarked) [Compound P35, 3-bromo-N-[1-[5-bromo-2-[5-(2,2-difluoroethoxy)-2-pyridyl]-1,2,4-triazol-3-yl]ethyl]-5-(trifluoromethyl) benzamide]
≥ 80%: mortality at 200 ppm [10] | percent control (mortality or growth inhibition) at 200 ppm [2] | percent control (mortality, anti-feedant effect or growth inhibition) at 200 ppm [3] | percent control (mortality, anti-feedant effect or growth inhibition) at 200 ppm [4] | mortality at 500 ppm [6] | percent control (mortality or growth inhibition) at 200 ppm [7]

CC(NC(=O)c1cc(Cl)cc(C(F)(F)F)c1)c1nc(Br)nn1-c1ncc(OCC(F)(F)F)cn1 (centres unmarked) [Compound P43, N-[1-[5-bromo-2-[5-(2,2,2-trifluoroethoxy)pyrimidin-2-yl]-1,2,4-triazol-3-yl]ethyl]-3-chloro-5-(trifluoromethyl) benzamide]
≥ 80%: percent control (mortality or growth inhibition) at 200 ppm [2] | percent control (mortality, anti-feedant effect or growth inhibition) at 200 ppm [3] | percent control (mortality, anti-feedant effect or growth inhibition) at 200 ppm [4] | mortality at 50 ppm [9] | mortality at 500 ppm [6] | percent control (mortality or growth inhibition) at 200 ppm [7]

CC(NC(=O)c1cc(OCC(F)F)cc(C(F)(F)F)c1)c1nc(Br)nn1-c1ncc(OCC(F)F)cn1 (centres unmarked) [Compound P47, N-[1-[5-bromo-2-[5-(2,2-difluoroethoxy)pyrimidin-2-yl]-1,2,4-triazol-3-yl]ethyl]-3-(2,2-difluoroethoxy)-5-(trifluoromethyl) benzamide]
≥ 80%: percent control (mortality, anti-feedant effect or growth inhibition) at 200 ppm [3] | percent control (mortality, anti-feedant effect or growth inhibition) at 200 ppm [4] | mortality at 50 ppm [9] | mortality at 500 ppm [6] | percent control (mortality or growth inhibition) at 200 ppm [7]

CC(NC(=O)c1cc(OCC(F)F)cc(C(F)(F)F)c1)c1nc(Br)nn1-c1ccc(OCC(F)(F)F)cn1 (centres unmarked) [Compound P55, N-[1-[5-bromo-2-[5-(2,2,2-trifluoroethoxy)-2-pyridyl]-1,2,4-triazol-3-yl]ethyl]-3-(2,2-difluoroethoxy)-5-(trifluoromethyl) benzamide]
≥ 80%: mortality at 200 ppm [10] | percent control (mortality or growth inhibition) at 200 ppm [7]
